From patent US20230159527A1, “COMPOUNDS AS BCL-2 INHIBITORS” (Fochon Pharmaceuticals, Ltd., priority 2020, published 2023)

What was measured:
Assay type in all cases: cell-based
[1] = system: RS4;11 cells; test: Cell proliferation assay, RS4;11 cells (MTS, 72 h); settings: Homo sapiens, RS4;11 cell proliferation
In short: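 RS4;11 cells (30000/well, RPMI-1640 plus 10% FBS) treated with compounds at 1.5-10000 nM for 72 h at 37° C, 5% CO2. Viability by MTS (2 h), absorbance at 490 nm with 650 nm reference; IC50 from proliferation inhibition.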

[2] = system: Toledo cells; test: Cell proliferation assay, Toledo cells (MTS, 72 h); settings: Homo sapiens, Toledo cells, MTS, read-out: Toledo IC50
In short: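 IC50 was derived from 490 nm absorbance after a 2 h MTS step. Before that, compounds at 1.5–10000 nM final (nine points) acted on Toledo cells for 72 h at 37 °C, 5% CO2. Cells were seeded at 30000/well in 10% FBS RPMI-1640 and rested 4 h before dosing.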

[3] = system: DoHH2 cells; test: Cell proliferation assay, DoHH2 cells (MTS, 120 h); settings: Homo sapiens, DOHH-2
In short: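 DoHH2 cells in RPMI-1640 with 10% FBS were plated at 5000/well and rested 4 h. They were then exposed to compound at nine final concentrations (10000 to 1.5 nM) for 120 h at 37 °C. Viability was read by MTS (2 h, A490) and IC50 derived by curve fitting.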

SMILES | IC50 [1] | IC50 [2] | IC50 [3]
CC(C)c1ccccc1[C@H]1CCCN1C1CC2(CCN(c3ccc(C(=O)NS(=O)(=O)c4cnc(NCC5C6COCC56)c([N+](=O)[O-])c4)c(Oc4cnc5[nH]ccc5c4)c3)CC2)C1 (stereo partly drawn) [Example A-27b, 2-((1H-pyrrolo[2,3-b]pyridin-5-yl)oxy)-N-((6-(((3-oxabicyclo[3.1.0]hexan-6-yl)methyl)amino)-5-nitro-pyridin-3-yl)sulfonyl)-4-(2-((R)-2-(2-isopropylphenyl)pyrrolidin-1-yl)-7-azaspiro[3.5]nonan-7-yl) benzamide] | ≤ 1 nM | 1 nM | ≤ 1 nM
O=C(NS(=O)(=O)c1cnc(NCC2C3COCC23)c([N+](=O)[O-])c1)c1ccc(N2CCC3(CC2)CC(N2CCC[C@@H]2c2ccccc2C2CC2)C3)cc1Oc1cnc2[nH]ccc2c1 (stereo partly drawn) [Example A-30b, 2-((1H-pyrrolo[2,3-b]pyridin-5-yl)oxy)-N-((6-(((3-oxabicyclo[3.1.0]hexan-6-yl)methyl)amino)-5-nitro-pyridin-3-yl)sulfonyl)-4-(2-((R)-2-(2-cyclopropylphenyl)pyrrolidine-1-yl)-7-azaspiro[3.5]nonan-7-yl)benzamide] | ≤ 1 nM | 1 nM | ≤ 1 nM
CC(C)c1ccccc1[C@H]1CCCN1C1CC2(CCN(c3ccc(C(=O)NS(=O)(=O)c4cnc(NCC5(F)CCOCC5)c([N+](=O)[O-])c4)c(Oc4cnc5[nH]ccc5c4)c3)CC2)C1 [Example A-31b, (R)-2-((1H-pyrrolo[2,3-b]pyridin-5-yl)oxy)-N-((6-(((4-fluorotetra-hydro-2H-pyran-4-yl)methyl)amino)-5-nitropyridin-3-yl)sulfonyl)-4-(2-(2-(2-isopropylphenyl)pyrrolidin-1-yl)-7-azaspiro[3.5]nonan-7-yl)benzamide] | ≤ 1 nM | 2 nM | ≤ 1 nM
C[C@]1(O)CC[C@H](CNc2ncc(S(=O)(=O)NC(=O)c3ccc(N4CCC5(CC4)CC(N4CCNC[C@H]4c4ccccc4C4CC4)C5)cc3Oc3cnc4[nH]ccc4c3)cc2[N+](=O)[O-])CC1 [Example A-37, 2-((1H-pyrrolo[2,3-b]pyridin-5-yl)oxy)-4-(2-((R)-2-(2-cyclopropyl-phenyl)piperazin-1-yl)-7-azaspiro [3.5]nonan-7-yl)-N-((6-((((1r,4r)-4-hydroxy-4-methylcyclohexyl)methyl)amino)-5-nitropyridin-3-yl)sulfonyl)benzamide] | ≤ 1 nM | 1 nM | ≤ 1 nM
